Measured values taken from PMC6941823, “A dispensable paralog of succinate dehydrogenase subunit C mediates standing resistance towards a subclass of SDHI fungicides in Zymoseptoria tritici” (PLoS Pathogens, 2019).
Read-outs that look alike come from different tables or passages of the source.

Legend:
[1] = target: SQR of 06STD024 (SDHC / altC) mitochondria (Zymoseptoria tritici, UniProt A0A1X7RQW2+F9X9V6+F9XH52+O42772); assay: Succinate-quinone (SQR) SDHI sensitivity assay on purified mitochondria, 06STD024; assay type: biochemical; details: for IC50: mitochondria of field isolate 06STD024, mean of three ± SD; for RF (resistance factor), 06STD024 (SDHC / altC): IC50 ratio compared to IPO323 values
Experimental: (§1) Succinate-ubiquinone oxidoreductase (SQR) inhibition assays were performed on mitochondrial extracts from a panel of strains that were (i) either carrying a unique C-subunit encoding gene (ZtSDHC1, ZtSDHC1_A84I or Zt-SDHC3), or (ii) carrying two C-subunit encoding genes ZtSDHC1 and ZtSDHC3 (Table 1).
(§2) Biomass production, mitochondrial extraction and purification were performed as described in [14]. Succinate: ubiquinone/DCPIP sensitivity tests were performed as described in [14] with minor modification.

[2] = target: altC-SQR (altC) of D024 SDHC1 KO mitochondria (Zymoseptoria tritici, UniProt A0A1X7RQW2+F9X9V6+O42772); assay: Succinate-quinone (SQR) SDHI sensitivity assay on purified mitochondria, 06STD024 SDHC1 KO; assay type: biochemical; details: for IC50: mitochondria of 06STD024 ZtSDHC1 deletion mutant (pure altC-SQR), mean of three ± SD; for RF (resistance factor), D024 SDHC1 KO (altC): IC50 ratio compared to IPO323 values
Experimental: as §1, §2

[3] = system: SQR (SDHC / altC) of IPO323 pTet::SDHC3 transformant, induced; assay: Succinate-quinone (SQR) SDHI sensitivity assay on purified mitochondria, IPO323 pTet::SDHC3 induced; assay type: biochemical, Zymoseptoria tritici; details: IPO323 pTet::SDHC3 transformant grown in the absence of doxycycline; mean of three ± SD
Experimental: as §1, §2

[4] = target: SQR (SDHC / altC) of IPO323 pTet::SDHC3 transformant, repressed (Zymoseptoria tritici, UniProt A0A1X7RQW2+F9X9V6+F9XH52+O42772); assay: Succinate-quinone (SQR) SDHI sensitivity assay on purified mitochondria, IPO323 pTet::SDHC3 repressed; assay type: biochemical; details: for IC50: IPO323 pTet::SDHC3 transformant grown in presence of 30 mg.L^-1 doxycycline, mean of three ± SD; for RF (resistance factor), pTet Repressed (SDHC / altC): IC50 ratio compared to IPO323 values
Experimental: as §1, §2

[5] = system: Zymoseptoria tritici field and genetically modified strains; assay: Liquid culture assay for fungicide sensitivity determination; assay type: cell-based; details: Zymoseptoria tritici, liquid culture sensitivity
Experimental: Sensitivity towards commercial fungicides was determined for a set of 99 SHA-SDHI-naïve Z. tritici field isolates sampled in Europe between 2006 and 2009. The EC50 of these isolates was determined in liquid growth assays and the data obtained compared for each possible pair of SDHI fungicides (cross-resistance (XR) plots, Fig 1). […] Comparative succinate-quinone reductase (SQR) enzyme inhibition tests were performed with mitochondria extracted from a panel of SHA-SDHIs tolerant and sensitive isolates.
In order to characterize in more depth the mechanisms driving sensitivity differences across the isolates, a subset of eight isolates carrying the ZtSDHC3 gene was analyzed for their sensitivity to SDHIs, alt-SDHC expression and splicing patterns. Liquid culture growth sensitivity tests were performed to determine EC50s for this set of isolates towards a wide range of commercial and research SDHIs (S5 Table).
Pre-culture of the inoculum and fungicide sensitivity tests were performed following previously described procedures. Different ranges of inhibitor concentrations were used for population monitoring and for the detailed phenotyping of a selected set of individual field isolates and genetically modified strains. For fungicide sensitivity monitoring of European field populations, final inhibitors concentrations were between 100 mg.L^-1 and 0.0001 mg.L^-1 with uniform 10x dilution steps (7 inhibitor concentrations + DMSO control). For refined sensitivity analysis of a smaller panel of isolates final inhibitor concentrations ranged between 0.5 mM and 0.47 nM with uniform 4x dilution factor steps (11 inhibitor concentrations+ DMSO control).

[6] = target: WT-SQR (SDHC), IPO323 mitochondria (Zymoseptoria tritici, UniProt F9X9V6+F9XH52+O42772); assay: Succinate-quinone (SQR) SDHI sensitivity assay on purified mitochondria, IPO323; assay type: biochemical
Experimental: as §1
(§3) Biomass production, mitochondrial extraction and purification were performed as described in [14]. Succinate: ubiquinone/DCPIP sensitivity tests were performed as described in [14] with minor modification. The different mitochondrial suspensions were adjusted to similar initial velocity (1 OD595nm hour^-1) and inhibitor concentrations ranged between 0.047nM and 50μM with uniform 4x dilution steps (11 concentrations + DMSO control). Calculated absorbance slopes (OD/min) were used for IC50 calculations using GraphPad Prism 6.07 software non-linear curve fitting against log inhibitor concentrations.

[7] = target: SQR (SDHC) of D024 SDHC3 KO mitochondria (Zymoseptoria tritici, UniProt F9X9V6+F9XH52+O42772); assay: Succinate-quinone (SQR) SDHI sensitivity assay on purified mitochondria, 06STD024 SDHC3 KO; assay type: biochemical; details: for RF (resistance factor), D024 SDHC3 KO (SDHC): IC50 ratio compared to IPO323 values; for IC50: mitochondria of 06STD024 ZtSDHC3 deletion mutant, mean of three ± SD
Experimental: as §1, §3

[8] = read-out: EC50 (nM) Mean, strain 06STD024
[9] = read-out: EC50 (nM) Mean, strain 07STGB009
[10] = read-out: EC50 (nM) Mean, strain 09STD041
[11] = read-out: EC50 (nM) Mean, strain 09STD053
[12] = read-out: EC50 (nM) Mean, strain 09STF011
[13] = read-out: EC50 (nM) Mean, strain 09STF037
[14] = read-out: EC50 (nM) Mean, strain 09STF112
[15] = read-out: EC50 (nM) Mean, strain 09STIR20.3
[16] = read-out: EC50 (nM) Mean, strain Flu21 (SDHC1_A84I)
[17] = read-out: EC50 (nM) Mean, strain IPO323
[18] = read-out: EC50 (nM) Mean, strain IPO94269
[19] = read-out: EC50 (nM) Mean, strain KO_SDHC1_T1
[20] = read-out: EC50 (nM) Mean, strain KO_SDHC1_T3
[21] = read-out: EC50 (nM) Mean, strain KO_SDHC3_T4
[22] = read-out: EC50 (nM) Mean, strain KO_SDHC3_T13
[23] = read-out: EC50 (nM) Mean, strain pTet::SDHC3_I78A_T1
[24] = read-out: EC50 (nM) Mean, strain pTet::SDHC3_I78A_T5
[25] = read-out: EC50 (nM) Mean, strain pTet::SDHC3_I78A_T15
[26] = read-out: EC50 (nM) Mean, strain pTet::SDHC3_I78A_T35
[27] = read-out: EC50 (nM) Mean, strain pTet::SDHC3_T1
[28] = read-out: EC50 (nM) Mean, strain pTet::SDHC3_T2
[29] = read-out: EC50 (nM) Mean, strain pTet::SDHC3_T3
[30] = read-out: EC50 (nM) Mean, strain pTet::SDHC3_T7

Chain of WT-SQR (SDHC), IPO323 mitochondria (F9WWR1 entry or part of it): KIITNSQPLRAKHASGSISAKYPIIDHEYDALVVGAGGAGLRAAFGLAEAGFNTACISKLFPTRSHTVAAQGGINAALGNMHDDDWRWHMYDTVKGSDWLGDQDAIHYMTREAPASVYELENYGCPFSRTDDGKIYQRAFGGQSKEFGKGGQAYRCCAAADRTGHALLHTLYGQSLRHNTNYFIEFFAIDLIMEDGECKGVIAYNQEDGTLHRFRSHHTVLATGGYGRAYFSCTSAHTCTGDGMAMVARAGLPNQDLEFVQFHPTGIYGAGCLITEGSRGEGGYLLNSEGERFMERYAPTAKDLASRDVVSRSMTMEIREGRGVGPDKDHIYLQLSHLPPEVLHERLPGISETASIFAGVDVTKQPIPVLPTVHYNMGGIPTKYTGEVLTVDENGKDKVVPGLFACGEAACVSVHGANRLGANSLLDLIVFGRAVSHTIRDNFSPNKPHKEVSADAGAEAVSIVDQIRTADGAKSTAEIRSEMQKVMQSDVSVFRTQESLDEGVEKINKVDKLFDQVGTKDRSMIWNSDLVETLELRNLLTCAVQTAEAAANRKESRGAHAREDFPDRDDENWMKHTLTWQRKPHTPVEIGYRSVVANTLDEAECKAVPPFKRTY
Chain of WT-SQR (SDHC), IPO323 mitochondria (F9X9V6 entry or part of it): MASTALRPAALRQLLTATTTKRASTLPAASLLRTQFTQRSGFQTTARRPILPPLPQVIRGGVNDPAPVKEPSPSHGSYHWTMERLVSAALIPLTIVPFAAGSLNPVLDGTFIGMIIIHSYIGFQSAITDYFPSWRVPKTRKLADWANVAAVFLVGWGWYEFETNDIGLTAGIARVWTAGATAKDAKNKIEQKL
Chain of WT-SQR (SDHC), IPO323 mitochondria (O42772 19-297): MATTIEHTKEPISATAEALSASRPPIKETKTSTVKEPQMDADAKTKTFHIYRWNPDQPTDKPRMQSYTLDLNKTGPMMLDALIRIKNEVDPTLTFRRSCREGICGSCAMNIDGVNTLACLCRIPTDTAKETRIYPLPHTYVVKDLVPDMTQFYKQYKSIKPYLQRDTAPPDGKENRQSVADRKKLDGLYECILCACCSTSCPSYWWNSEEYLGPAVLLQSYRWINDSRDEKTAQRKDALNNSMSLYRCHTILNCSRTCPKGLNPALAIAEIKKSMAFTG
Chain of WT-SQR (SDHC), IPO323 mitochondria (F9XH52 entry or part of it): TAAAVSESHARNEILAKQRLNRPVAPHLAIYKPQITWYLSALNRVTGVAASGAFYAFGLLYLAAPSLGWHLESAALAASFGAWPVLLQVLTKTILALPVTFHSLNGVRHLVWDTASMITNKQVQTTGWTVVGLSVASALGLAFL
Chain of SQR (SDHC / altC) of IPO323 pTet::SDHC3 transformant, repressed (F9XH52 44-187): as the sequence (F9XH52 entry or part of it) above
Chain of SQR (SDHC / altC) of IPO323 pTet::SDHC3 transformant, repressed (O42772 20-297): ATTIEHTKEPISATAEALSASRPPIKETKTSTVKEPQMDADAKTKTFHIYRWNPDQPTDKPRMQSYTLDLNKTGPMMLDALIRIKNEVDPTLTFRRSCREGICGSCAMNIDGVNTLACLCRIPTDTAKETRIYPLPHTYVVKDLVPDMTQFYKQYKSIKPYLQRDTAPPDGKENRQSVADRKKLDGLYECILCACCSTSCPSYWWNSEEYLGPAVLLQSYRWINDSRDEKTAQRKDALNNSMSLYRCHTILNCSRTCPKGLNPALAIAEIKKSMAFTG
Chain of SQR (SDHC / altC) of IPO323 pTet::SDHC3 transformant, repressed (F9X9V6 1-193): as the sequence (F9X9V6 entry or part of it) above
Chain of SQR (SDHC / altC) of IPO323 pTet::SDHC3 transformant, repressed (A0A1X7RQW2 36-181): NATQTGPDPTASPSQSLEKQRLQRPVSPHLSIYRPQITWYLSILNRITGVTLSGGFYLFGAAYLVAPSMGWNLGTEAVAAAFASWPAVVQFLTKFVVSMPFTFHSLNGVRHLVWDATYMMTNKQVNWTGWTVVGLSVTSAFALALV
Chain of SQR (SDHC / altC) of IPO323 pTet::SDHC3 transformant, repressed (F9WWR1 41-643 partner): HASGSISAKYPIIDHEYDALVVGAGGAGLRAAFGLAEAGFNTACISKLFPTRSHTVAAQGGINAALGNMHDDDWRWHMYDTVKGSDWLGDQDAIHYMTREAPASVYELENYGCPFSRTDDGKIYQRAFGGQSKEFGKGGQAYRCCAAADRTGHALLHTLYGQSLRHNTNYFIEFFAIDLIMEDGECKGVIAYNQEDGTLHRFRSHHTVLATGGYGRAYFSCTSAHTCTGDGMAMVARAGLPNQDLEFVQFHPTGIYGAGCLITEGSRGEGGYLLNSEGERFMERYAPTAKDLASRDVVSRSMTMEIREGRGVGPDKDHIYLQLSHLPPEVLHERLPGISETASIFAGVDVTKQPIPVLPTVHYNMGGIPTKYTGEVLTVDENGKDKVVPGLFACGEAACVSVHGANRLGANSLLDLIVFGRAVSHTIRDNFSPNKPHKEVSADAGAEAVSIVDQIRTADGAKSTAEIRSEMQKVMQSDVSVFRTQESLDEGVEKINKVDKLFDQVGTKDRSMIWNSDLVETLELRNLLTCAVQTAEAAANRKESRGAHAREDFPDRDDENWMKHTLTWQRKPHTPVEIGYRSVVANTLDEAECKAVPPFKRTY
Chain of SQR (SDHC) of D024 SDHC3 KO mitochondria (F9XH52 44-187): as the sequence (F9XH52 entry or part of it) above
Chain of SQR (SDHC) of D024 SDHC3 KO mitochondria (O42772 19-297): as the sequence (O42772 19-297) above
Chain of SQR (SDHC) of D024 SDHC3 KO mitochondria (F9X9V6 1-193): as the sequence (F9X9V6 entry or part of it) above
Chain of SQR (SDHC) of D024 SDHC3 KO mitochondria (F9WWR1 29-643 partner): as the sequence (F9WWR1 entry or part of it) above

SMILES | IC50 [1] [nM] | IC50 [2] [nM] | IC50 [3] [nM] | IC50 [4] [nM] | EC50 [5, 8] [nM] | EC50 [5, 9] [nM] | EC50 [5, 10] [nM] | EC50 [5, 11] [nM] | EC50 [5, 12] [nM] | EC50 [5, 13] [nM] | EC50 [5, 14] [nM] | EC50 [5, 15] [nM] | EC50 [5, 16] [nM] | EC50 [5, 17] [nM] | EC50 [5, 18] [nM] | EC50 [5, 19] [nM] | EC50 [5, 20] [nM] | EC50 [5, 21] [nM] | EC50 [5, 22] [nM] | EC50 [5, 23] [nM] | other results
Cn1cc(C(=O)NCCc2ccc(Cl)cc2Cl)c(C(F)F)n1 [Compound 1] | 875 ± 159 | 940 ± 238 | 484 ± 42.8 | 152 ± 17.5 | 14700 | 15700 | 6050 | 6070 | 7870 | 4910 | 8980 | 4360 | 49100 | 3580 | 2710 | 125000 | 78800 | 9090 | 7200 | 4610 | EC50 [5, 24]: 7960 nM; EC50 [5, 25]: 3300 nM; EC50 [5, 26]: 4430 nM; EC50 [5, 27]: 33300 nM; EC50 [5, 28]: 35300 nM; EC50 [5, 29]: 22900 nM; EC50 [5, 30]: 35300 nM; IC50 [6]: 113 ± 10.9 nM; RF (resistance factor), D024 SDHC3 KO (SDHC) [7]: 0.7; IC50 [7]: 79.4 ± 7.6 nM
O=C(Nc1ccccc1-c1ccc(Cl)cc1)c1cccnc1Cl [Boscalid] | 61.9 ± 16 | 54.4 ± 12.9 | 40.3 ± 2.7 | 29.8 ± 4 | 1180 | 514 | 644 | 512 | 581 | 591 | 720 | 798 | 3020 | 384 | 853 | 2160 | 2050 | 637 | 681 | 776 | RF (resistance factor), 06STD024 (SDHC / altC) [1]: 3.6; RF (resistance factor), D024 SDHC1 KO (altC) [2]: 3.2; RF (resistance factor), pTet Repressed (SDHC / altC) [4]: 1.8; EC50 [5, 24]: 1680 nM; EC50 [5, 25]: 768 nM; EC50 [5, 26]: 270 nM; EC50 [5, 27]: 1300 nM; EC50 [5, 28]: 1420 nM; EC50 [5, 29]: 1450 nM; EC50 [5, 30]: 1460 nM; IC50 [6]: 17 ± 3.7 nM; RF (resistance factor), D024 SDHC3 KO (SDHC) [7]: 1.0; IC50 [7]: 16.4 ± 2.4 nM
C[C@@H](Cc1ccc(Cl)cc1Cl)NC(=O)c1cn(C)nc1C(F)F [Compound 2] | 415 ± 68 | 358 ± 63.4 | 204 ± 20.7 | 15.6 ± 3.9 | 2320 | 4000 | 702 | 367 | 606 | 178 | 786 | 259 | 5450 | 96.4 | 161 | 10400 | 8310 | 299 | 309 | 168 | EC50 [5, 24]: 332 nM; EC50 [5, 25]: 150 nM; EC50 [5, 26]: 100 nM; EC50 [5, 27]: 6140 nM; EC50 [5, 28]: 5160 nM; EC50 [5, 29]: 5660 nM; EC50 [5, 30]: 7400 nM; IC50 [6]: 5.3 ± 0.6 nM; RF (resistance factor), D024 SDHC3 KO (SDHC) [7]: 0.7; IC50 [7]: 3.7 ± 0.5 nM
CC1=C(C(=O)Nc2ccccc2)SCCO1 [Carboxin] | 731 ± 84.4 | 865 ± 215 | 762 ± 164 | 1200 ± 85 | 4620 | 6340 | 13200 | 9370 | 9620 | 6840 | 6780 | 13200 | 10200 | 8550 | 10800 | 10400 | 11200 | 20600 | 19600 | 7520 | RF (resistance factor), 06STD024 (SDHC / altC) [1]: 0.8; RF (resistance factor), D024 SDHC1 KO (altC) [2]: 0.9; RF (resistance factor), pTet Repressed (SDHC / altC) [4]: 1.2; EC50 [5, 24]: 12700 nM; EC50 [5, 25]: 8080 nM; EC50 [5, 26]: 15700 nM; EC50 [5, 27]: 6980 nM; EC50 [5, 28]: 7420 nM; EC50 [5, 29]: 6930 nM; EC50 [5, 30]: 8460 nM; IC50 [6]: 969 ± 182 nM; RF (resistance factor), D024 SDHC3 KO (SDHC) [7]: 0.8; IC50 [7]: 775 ± 94.5 nM
